Converted amounts (≈) assume the structure as drawn.
Tests used:
Type in all cases: functional
[1] = tested on: Haemophilus sp.; assay: Antimicrobial activity against Haemophilus sp. clinical isolates
[2] = tested on: Escherichia coli; assay: Antimicrobial activity against Escherichia coli clinical isolates
[3] = tested on: Acinetobacter sp.; assay: Antimicrobial activity against Acinetobacter sp. clinical isolates
[4] = tested on: Streptococcus pneumoniae; assay: Antimicrobial activity against Streptococcus pneumoniae clinical isolates
[5] = T>MIC in bacilli infected patients with severe renal impairment at 250 mg administered as 4 hrs infusion every 12 hrs
[6] = tested on: Staphylococcus sp.; assay: Antimicrobial activity against Staphylococcus sp. clinical isolates
[7] = tested on: Burkholderia cepacia; assay: Antimicrobial activity against Burkholderia cepacia clinical isolates
[8] = tested on: Proteus mirabilis; assay: Antimicrobial activity against Proteus mirabilis clinical isolates
[9] = tested on: Enterococcus faecalis; assay: Antimicrobial activity against Enterococcus faecalis clinical isolates
[10] = tested on: Staphylococcus sp.; assay: Antimicrobial activity against Coagulase-negative oxacillin-susceptible Staphylococcus sp. clinical isolates
[11] = tested on: Staphylococcus aureus; assay: Antimicrobial activity against oxacillin-susceptible Staphylococcus aureus clinical isolates
[12] = tested on: Stenotrophomonas maltophilia; assay: Antimicrobial activity against Stenotrophomonas maltophilia clinical isolates
[13] = T>MIC in bacilli infected patients with moderate renal impairment at 250 mg administered as 1 hr infusion every 8 hrs
[14] = tested on: Serratia marcescens; assay: Antimicrobial activity against Serratia marcescens clinical isolates
[15] = tested on: Acinetobacter baumannii; assay: Antimicrobial activity against Acinetobacter baumannii clinical isolates
[16] = tested on: Streptococcus pneumoniae; assay: Antimicrobial activity against Streptococcus pneumoniae clinical isolate obtained from critically ill patients
[17] = tested on: Staphylococcus aureus; assay: Antimicrobial activity against Staphylococcus aureus clinical isolates
[18] = tested on: Citrobacter koseri; assay: Antimicrobial activity against Citrobacter koseri clinical isolates
[19] = tested on: Enterobacteriaceae; assay: Antimicrobial activity against Enterobacteriaceae clinical isolates
[20] = tested on: Pseudomonas aeruginosa; assay: Antimicrobial activity against Pseudomonas aeruginosa clinical isolate obtained from critically ill patients
[21] = T>MIC in bacilli infected patients with renal impairment at 500 mg administered as 1 hr infusion every 8 hrs
[22] = tested on: Staphylococcus aureus; assay: Antimicrobial activity against methicillin-susceptible Staphylococcus aureus clinical isolate obtained from critically ill patients
[23] = tested on: Klebsiella aerogenes; assay: Antimicrobial activity against Enterobacter aerogenes clinical isolates
[24] = tested on: Enterobacter cloacae; assay: Antimicrobial activity against Enterobacter cloacae clinical isolates
[25] = tested on: Klebsiella oxytoca; assay: Antimicrobial activity against Klebsiella oxytoca clinical isolates
[26] = tested on: Staphylococcus aureus; assay: Antimicrobial activity against methicillin-resistant Staphylococcus aureus clinical isolate obtained from critically ill patients
[27] = tested on: Haemophilus influenzae; assay: Antimicrobial activity against Haemophilus influenzae clinical isolate obtained from critically ill patients
[28] = tested on: Citrobacter freundii; assay: Antimicrobial activity against Citrobacter freundii clinical isolates
[29] = tested on: Acinetobacter sp.; assay: Antimicrobial activity against Acinetobacter sp. clinical isolate obtained from critically ill patients
[30] = tested on: Enterococcus sp.; assay: Antimicrobial activity against Enterococcus sp. clinical isolates
[31] = tested on: Streptococcus sp.; assay: Antimicrobial activity against Streptococcus sp. clinical isolates
[32] = tested on: Enterococcus faecalis; assay: Antimicrobial activity against Enterococcus faecalis clinical isolate obtained from critically ill patients
[33] = tested on: Enterobacter cloacae; assay: Antimicrobial activity against Enterobacter cloacae clinical isolate obtained from critically ill patients
[34] = tested on: Klebsiella pneumoniae; assay: Antimicrobial activity against Klebsiella pneumoniae clinical isolates
[35] = tested on: Staphylococcus sp.; assay: Antimicrobial activity against Coagulase-negative Staphylococcus sp. clinical isolates
[36] = tested on: Proteus mirabilis; assay: Antimicrobial activity against Proteus mirabilis clinical isolate obtained from critically ill patients
[37] = tested on: Klebsiella pneumoniae; assay: Antimicrobial activity against Klebsiella pneumoniae clinical isolate obtained from critically ill patients
[38] = tested on: Escherichia coli; assay: Antimicrobial activity against Escherichia coli clinical isolate obtained from critically ill patients
[39] = tested on: Pseudomonas aeruginosa; assay: Antimicrobial activity against Pseudomonas aeruginosa clinical isolates
[40] = tested on: Morganella morganii; assay: Antimicrobial activity against Morganella morganii clinical isolates

## C[C@@H](O)[C@H]1C(=O)N2C(C(=O)O)=C(S[C@@H]3CN[C@H](CNS(N)(=O)=O)C3)[C@H](C)[C@H]12 [DORIPENEM]
[1]
  MIC50: 0.06 µg/mL (≈ 0.143 µM)
  MIC90: 0.25 µg/mL (≈ 0.595 µM)
[2]
  MIC: ≤ 0.03 µg/mL
  MIC50: ≤ 0.03 µg/mL
  MIC90: 0.03 µg/mL (≈ 0.0713 µM)
[3]
  MIC50: 0.5 µg/mL (≈ 1.19 µM)
  MIC90: 32 µg/mL (≈ 76.1 µM)
[4]
  MIC: ≤ 0.03 µg/mL
  MIC50: ≤ 0.03 µg/mL
  MIC90: 0.5 µg/mL (≈ 1.19 µM)
[5]
  fT>MIC: 35%
[6]
  MIC50: ≤ 0.03 µg/mL
  MIC90: 16 µg/mL (≈ 38 µM)
[7]
  MIC: 2 µg/mL (≈ 4.76 µM)
[8]
  MIC50: 0.25 µg/mL (≈ 0.595 µM)
  MIC90: 0.5 µg/mL (≈ 1.19 µM)
[9]
  MIC50: 4 µg/mL (≈ 9.51 µM)
  MIC90: 4 µg/mL (≈ 9.51 µM)
[10]
  MIC: ≤ 0.03 µg/mL
  MIC50: ≤ 0.03 µg/mL
  MIC90: 0.25 µg/mL (≈ 0.595 µM)
[11]
  MIC: ≤ 0.03 µg/mL
  MIC50: ≤ 0.03 µg/mL
  MIC90: 0.06 µg/mL (≈ 0.143 µM)
[12]
  MIC50: 64 µg/mL (≈ 152 µM)
  MIC90: > 128 µg/mL
[13]
  fT>MIC: 35%
[14]
  MIC50: 0.12 µg/mL (≈ 0.285 µM)
  MIC90: 0.25 µg/mL (≈ 0.595 µM)
[15]
  MIC50: 1 µg/mL (≈ 2.38 µM)
  MIC90: 32 µg/mL (≈ 76.1 µM)
[16]
  MIC: ≤ 0.015 µg/mL
  MIC50: ≤ 0.015 µg/mL
  MIC90: 0.5 µg/mL (≈ 1.19 µM)
[17]
  MIC50: ≤ 0.03 µg/mL
  MIC90: 16 µg/mL (≈ 38 µM)
[18]
  MIC: ≤ 0.03 µg/mL
  MIC50: ≤ 0.03 µg/mL
  MIC90: 0.06 µg/mL (≈ 0.143 µM)
[19]
  MIC: ≤ 0.03 µg/mL
  MIC50: ≤ 0.03 µg/mL
  MIC90: 0.12 µg/mL (≈ 0.285 µM)
[20]
  MIC50: 0.5 µg/mL (≈ 1.19 µM)
  MIC90: 8 µg/mL (≈ 19 µM)
[21]
  fT>MIC: 35%
[22]
  MIC50: 0.03 µg/mL (≈ 0.0713 µM)
  MIC90: 0.06 µg/mL (≈ 0.143 µM)
[23]
  MIC50: 0.06 µg/mL (≈ 0.143 µM)
  MIC90: 0.12 µg/mL (≈ 0.285 µM)
[24]
  MIC50: 0.06 µg/mL (≈ 0.143 µM)
  MIC90: 0.5 µg/mL (≈ 1.19 µM)
[25]
  MIC50: 0.06 µg/mL (≈ 0.143 µM)
  MIC90: 0.06 µg/mL (≈ 0.143 µM)
[26]
  MIC50: 1 µg/mL (≈ 2.38 µM)
  MIC90: 16 µg/mL (≈ 38 µM)
[27]
  MIC50: 0.12 µg/mL (≈ 0.285 µM)
  MIC90: 0.5 µg/mL (≈ 1.19 µM)
[28]
  MIC: ≤ 0.03 µg/mL
  MIC50: ≤ 0.03 µg/mL
  MIC90: 0.06 µg/mL (≈ 0.143 µM)
[29]
  MIC50: 16 µg/mL (≈ 38 µM)
  MIC90: > 32 µg/mL
[30]
  MIC50: 4 µg/mL (≈ 9.51 µM)
  MIC90: 32 µg/mL (≈ 76.1 µM)
[31]
  MIC: ≤ 0.03 µg/mL
  MIC50: ≤ 0.03 µg/mL
  MIC90: 0.06 µg/mL (≈ 0.143 µM)
[32]
  MIC50: 4 µg/mL (≈ 9.51 µM)
  MIC90: 4 µg/mL (≈ 9.51 µM)
[33]
  MIC50: 0.06 µg/mL (≈ 0.143 µM)
  MIC90: 0.12 µg/mL (≈ 0.285 µM)
[34]
  MIC50: 0.06 µg/mL (≈ 0.143 µM)
  MIC90: 0.12 µg/mL (≈ 0.285 µM)
[35]
  MIC50: 0.06 µg/mL (≈ 0.143 µM)
  MIC90: 16 µg/mL (≈ 38 µM)
[36]
  MIC50: 0.25 µg/mL (≈ 0.595 µM)
  MIC90: 1 µg/mL (≈ 2.38 µM)
[37]
  MIC50: 0.06 µg/mL (≈ 0.143 µM)
  MIC90: 0.25 µg/mL (≈ 0.595 µM)
[38]
  MIC50: 0.03 µg/mL (≈ 0.0713 µM)
  MIC90: 0.06 µg/mL (≈ 0.143 µM)
[39]
  MIC50: 0.5 µg/mL (≈ 1.19 µM)
  MIC90: 4 µg/mL (≈ 9.51 µM)
[40]
  MIC50: 0.25 µg/mL (≈ 0.595 µM)
  MIC90: 1 µg/mL (≈ 2.38 µM)

Source: ChEMBL document CHEMBL1255496, “Pharmacokinetic-pharmacodynamic-model-guided doripenem dosing in critically ill patients” (2010)
